{
  "source": "paper PMC11423305",
  "about": "“Structure-Based Design of CBP/EP300 Degraders: When Cooperativity Overcomes Affinity” (JACS Au, 2024)",
  "test_system": "SH-SY5Y cells",
  "test": "Cell viability (resazurin), SH-SY5Y",
  "type": "cell-based",
  "conditions": "3 day treatment",
  "procedure": "normalized to DMSO treated lanes on the same membrane. (Several compounds were\nmeasured at the same time, so DMSO treated lanes are replicated here between\nFigure S5. Anti-proliferation in additional cell lines. LNCaP (A and C) and SH-SY5Y (B)\ncell viability following 3 day compound treatment, and LNCaP following 6 day treatment\n(D), determined using resazurin.\nAfter 3 days of treatment, dCE-2 only has a mild effect on the proliferation of LNCaP and\nSH-SY5Y cells (Figure S5A and B).\nthe new CBP/EP300 PROTACs CBPD -268 and CBPD-4092,3 which have enhanced anti-\nproliferative activity in LNcaP cells relative to their parent inhibitor s. However, although\nthese PROTACs have effects at very low concentrations, their effect plateaus and a\nsubstantial proportion of cells remain viable at high compound concentrations. Similarly,\ndegradation of CBP and EP300, the maximal effect of this PROTAC is also limited under\nthe conditions we used (Figure S5C). Through this work it was clear to us that these […]\nThe primer sequences used were:\nGene Gene ID Forward Primer (5’-3’) Reverse primer (5’-3’)\nmyc NM_001354870.1 GTAGTGGAAAACCAGCC […]\nFluorescence (excitation = 560 nm, emission = 590 nm) was measured using a\nspectraMax M5 microplate reader (Molecular Devices) and cell viability was calculated […]\nvalues were calculated as the concentration required to inhibit cell viability to 50 % […]",
  "note": "Entries after “also recorded” stand apart in the source; their conditions may differ.",
  "data": [
    {"smiles": "Cc1cc2c(NC(=O)c3cc(NC(=O)CCCCCCCCCCNc4cccc5c4C(=O)N(C4CCC(=O)NC4=O)C5=O)cc(-c4ccn(C)n4)c3)cccc2nn1", "note": "(stereo not shown) [dCE-2]", "values": [
      {"measurement": "effect on proliferation of SH-SY5Y cells", "result": "mild effect; also recorded: limited effect"}
    ]}
  ]
}
